ChEMBL document CHEMBL1129202, “Palladium-catalysed synthesis of some biologically active 5, 6-disubstituted uracils” (Bioorg Med Chem Lett, 1996)

Tested on: CCRF-CEM
Experiment: In vitro cytotoxic activity against CCRF-CEM human lymphoblastoid cells in culture.
Type: functional, cell-based

Compound	IC50
Cc1ccc(C(=O)/C=C/c2nc(O)nc(O)c2I)cc1	1.4 µM
Cc1ccc(C(=O)/C=C/c2nc(O)nc(O)c2Br)cc1	2.6 µM
Cc1ccc(C(=O)/C=C/c2cc(O)nc(O)n2)cc1	1.8 µM
Cc1ccc(C(=O)/C=C/c2nc(O)nc(O)c2Cl)cc1	12.2 µM
COc1ccc(C(=O)/C=C/c2cc(O)nc(O)n2)cc1	2.2 µM
